Assay results from patent publication US20260274892A1, “MACROCYCLIC BROAD SPECTRUM ANTIBIOTICS” (RQx Pharmaceuticals, Inc., priority 2017, published 2026).

System: Escherichia coli ATCC 25922
Test: Minimum inhibitory concentration (MIC), CLSI broth micro-dilution, E. coli
Format: cell-based
Conditions: Escherichia coli
In short: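 Antibacterial potency is measured as MIC by the CLSI broth dilution method. Bacteria at OD600 0.0005 in Tween-80-supplemented cation-adjusted Mueller Hinton broth face ten twofold compound dilutions for 22 h at 35° C.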

[1] = ATCC25922, 22 h, Table 6, cation adjusted Mueller Hinton Broth + 0.002% Tween-80, 35° C.
[2] = ATCC25922, Table 6, cation adjusted Mueller Hinton Broth + 0.002% Tween-80, 35° C., 22 hours
[3] = ATCC25922, 22 h, Table 7, cation adjusted Mueller Hinton Broth + 0.002% Tween-80, 35° C.

Row | MIC [3] | Structure (SMILES) | MIC [2] | also measured
1 |  | Cc1nc(-c2ccc(C3CCCCCC3)cc2)nc(C)c1C(=O)N[C@@H](CCN)C(=O)N(C)[C@@H]1C(=O)N[C@@H](C)C(=O)N[C@H](C(=O)NCC#N)Cc2ccc(OCCN)c(c2)-c2cc1ccc2OCCN (racemic) [Compound 305, rac-(8S,11S,14S)-3,18-bis(2-aminoethoxy)-N-(cyanomethyl)-11-methyl-14-[methyl-[rac-(2S)-4-amino-2-[[2-(4-cycloheptylphenyl)-4,6-dimethyl-pyrimidine-5-carbonyl]amino]butanoyl]amino]-10,13-dioxo-9,12-diazatricyclo[13.3.1.12,6]icosa-1(18),2(20),3,5,15(19),16-hexaene-8-carboxamide] |  | MIC [1]: 0.13 µM
2 |  | Cc1nc(-c2ccc(C3=CCCCC3)cc2)nc(C)c1C(=O)N[C@@H](CCN)C(=O)N(C)[C@@H]1C(=O)N[C@@H](C)C(=O)N[C@H](C(=O)NCC#N)Cc2ccc(OCCN)c(c2)-c2cc1ccc2OCCN (racemic) [Compound 303, rac-(8S,11S,14S)-3,18-bis(2-aminoethoxy)-N-(cyanomethyl)-11-methyl-14-[methyl-[rac-(2S)-4-amino-2-[[2-[4-(cyclohexen-1-yl)phenyl]-4,6-dimethyl-pyrimidine-5-carbonyl]amino]butanoyl]amino]-10,13-dioxo-9,12-diazatricyclo[13.3.1.12,6]icosa-1(18),2(20),3,5,15(19),16-hexaene-8-carboxamide] |  | MIC [1]: 0.13 µM
3 |  | Cc1nc(-c2ccc(C(C)(C)C)cc2)nc(C)c1C(=O)N[C@H](COC(C)(C)C)C(=O)N[C@@H](CCN)C(=O)N(C)[C@@H]1C(=O)N[C@@H](C)C(=O)N[C@H](C(=O)NCC#N)Cc2ccc(OCCN)c(c2)-c2cc1ccc2OCCN (racemic) [Compound 468, rac-(8S,11S,14S)-3,18-bis(2-aminoethoxy)-N-(cyanomethyl)-11-methyl-14-[methyl-[rac-(2S)-4-amino-2-[[rac-(2R)-3-tert-butoxy-2-[[2-(4-tert-butylphenyl)-4,6-dimethyl-pyrimidine-5-carbonyl]amino]propanoyl]amino]butanoyl]amino]-10,13-dioxo-9,12-diazatricyclo[13.3.1.12,6]icosa-1(18),2(20),3,5,15(19),16-hexaene-8-carboxamide] | 1 µM | 
4 |  | Cc1nc(-c2ccc(C(C)(C)C)cc2)ncc1C(=O)N[C@@H](CCN)C(=O)N(C)[C@@H]1C(=O)N[C@@H](C)C(=O)N[C@H](C(=O)NCC#N)Cc2ccc(OCCN(C)C)c(c2)-c2cc1ccc2OCCN(C)C (racemic) [Compound 442, rac-(8S,11S,14S)-N-(cyanomethyl)-3,18-bis[2-(dimethylamino)ethoxy]-11-methyl-14-[methyl-[rac-(2S)-4-amino-2-[[2-(4-tert-butylphenyl)-4-methyl-pyrimidine-5-carbonyl]amino]butanoyl]amino]-10,13-dioxo-9,12-diazatricyclo[13.3.1.12,6]icosa-1(18),2(20),3,5,15(19),16-hexaene-8-carboxamide] | 0.91 µM | 
5 |  | Cc1nc(-c2ccc(OC3CCCCC3)cc2)nc(C)c1C(=O)N[C@@H](CCNC=O)C(=O)N(C)[C@@H]1C(=O)N[C@@H](C)C(=O)N[C@H](C(=O)NCC#N)Cc2ccc(OCCN)c(c2)-c2cc1ccc2OCCN (racemic) [Compound 504, rac-(8S,11S,14S)-3,18-bis(2-aminoethoxy)-N-(cyanomethyl)-11-methyl-14-[methyl-[rac-(2S)-2-[[2-[4-(cyclohexoxy)phenyl]-4,6-dimethyl-pyrimidine-5-carbonyl]amino]-4-formamido-butanoyl]amino]-10,13-dioxo-9,12-diazatricyclo[13.3.1.12,6]icosa-1(18),2(20),3,5,15(19),16-hexaene-8-carboxamide] | 0.75 µM | 
6 |  | CCCCc1ccc(-c2cc(C)c(C(=O)N[C@@H](CCN)C(=O)N(C)[C@@H]3C(=O)N[C@@H](C)C(=O)N[C@H](C(=O)NCC#N)Cc4ccc(OCCN)c(c4)-c4cc3ccc4OCCN)c(C)n2)nc1 (racemic) [Compound 365, rac-(8S,11S,14S)-3,18-bis(2-aminoethoxy)-N-(cyanomethyl)-11-methyl-14-[methyl-[rac-(2S)-4-amino-2-[[6-(5-butyl-2-pyridyl)-2,4-dimethyl-pyridine-3-carbonyl]amino]butanoyl]amino]-10,13-dioxo-9,12-diazatricyclo[13.3.1.12,6]icosa-1(18),2(20),3,5,15(19),16-hexaene-8-carboxamide] | 0.31 µM | 
7 | 0.25 µM | COc1c(NCCN)cc2cc1-c1cc(ccc1O)C[C@@H](C(=O)NCC#N)NC(=O)[C@H](C)NC(=O)[C@H]2N(C)C(=O)[C@H](CCN)NC(=O)c1c(C)nc(-c2ccc(C(C)(C)C)cc2)nc1C [Compound 630, (8S,11S,14S)-14-[[(2S)-4-amino-2-[[2-(4-tert-butylphenyl)-4,6-dimethyl-pyrimidine-5-carbonyl]amino]butanoyl]-methyl-amino]-17-(2-aminoethylamino)-N-(cyanomethyl)-3-hydroxy-18-methoxy-11-methyl-10,13-dioxo-9,12-diazatricyclo[13.3.1.12,6]icosa-1(18),2(20),3,5,15(19),16-hexaene-8-carboxamide] |  | 
8 | 0.38 µM | CNCCOc1ccc2cc1-c1cc(ccc1O)C[C@@H](C(=O)NCC#N)NC(=O)[C@H](C)NC(=O)[C@H]2N(C)C(=O)[C@H](CCN)NC(=O)c1c(C)nc(-c2ccc(C(C)(C)C)cc2)nc1C (racemic) [Compound 600, rac-(8S,11S,14S)-N-(cyanomethyl)-3-hydroxy-11-methyl-18-[2-(methylamino)ethoxy]-14-[methyl-[rac-(2S)-4-amino-2-[[2-(4-tert-butylphenyl)-4,6-dimethyl-pyrimidine-5-carbonyl]amino]butanoyl]amino]-10,13-dioxo-9,12-diazatricyclo[13.3.1.12,6]icosa-1(18),2(20),3,5,15(19),16-hexaene-8-carboxamide] |  | 
9 | 0.75 µM | Cc1nc(-c2ccc(C(C)(C)C)cc2)nc(C)c1C(=O)N[C@@H](CCN)C(=O)N(C)[C@@H]1C(=O)N[C@@H](C)C(=O)N[C@H](C(=O)NCC#N)Cc2ccc(OC3CNC3)c(c2)-c2cc1ccc2O (racemic) [Compound 605, rac-(8S,11S,14S)-3-(azetidin-3-yloxy)-N-(cyanomethyl)-18-hydroxy-11-methyl-14-[methyl-[rac-(2S)-4-amino-2-[[2-(4-tert-butylphenyl)-4,6-dimethyl-pyrimidine-5-carbonyl]amino]butanoyl]amino]-10,13-dioxo-9,12-diazatricyclo[13.3.1.12,6]icosa-1(18),2(20),3,5,15(19),16-hexaene-8-carboxamide] |  | 
10 |  | Cc1nc(-c2cnc(OCCC(C)(C)C)nc2)nc(C)c1C(=O)N[C@@H](CCN)C(=O)N(C)[C@@H]1C(=O)N[C@@H](C)C(=O)N[C@H](C(=O)NCC#N)Cc2ccc(OCCN)c(c2)-c2cc1ccc2OCCN (racemic) [Compound 550, rac-(8S,11S,14S)-3,18-bis(2-aminoethoxy)-N-(cyanomethyl)-11-methyl-14-[methyl-[rac-(2S)-4-amino-2-[[2-[2-(3,3-dimethylbutoxy)pyrimidin-5-yl]-4,6-dimethyl-pyrimidine-5-carbonyl]amino]butanoyl]amino]-10,13-dioxo-9,12-diazatricyclo[13.3.1.12,6]icosa-1(18),2(20),3,5,15(19),16-hexaene-8-carboxamide] |  | MIC [1]: 2 µM
11 |  | Cc1cc(-c2ccc(C(C)(C)C)cc2[N+](=O)[O-])nc(C)c1C(=O)N[C@@H](CCN)C(=O)N(C)[C@@H]1C(=O)N[C@@H](C)C(=O)N[C@H](C(=O)NCC#N)Cc2ccc(OCCN)c(c2)-c2cc1ccc2OCCN (racemic) [Compound 368, rac-(8S,11S,14S)-3,18-bis(2-aminoethoxy)-N-(cyanomethyl)-11-methyl-14-[methyl-[rac-(2S)-4-amino-2-[[6-(4-tert-butyl-2-nitro-phenyl)-2,4-dimethyl-pyridine-3-carbonyl]amino]butanoyl]amino]-10,13-dioxo-9,12-diazatricyclo[13.3.1.12,6]icosa-1(18),2(20),3,5,15(19),16-hexaene-8-carboxamide] | 0.5 µM | 
12 | 0.19 µM | Cc1nc(-c2ccc(C(C)(C)C)cc2)nc(C)c1C(=O)N[C@@H](CCN)C(=O)N(C)[C@@H]1C(=O)N[C@@H](C)C(=O)N[C@H](C(=O)NCC#N)Cc2ccc(O)c(c2)-c2cc1ccc2OC[C@H](O)CN (racemic) [Compound 617, rac-(8S,11S,14S)-N-(cyanomethyl)-3-hydroxy-11-methyl-14-[methyl-[rac-(2S)-4-amino-2-[[2-(4-tert-butylphenyl)-4,6-dimethyl-pyrimidine-5-carbonyl]amino]butanoyl]amino]-10,13-dioxo-18-[rac-(2R)-3-amino-2-hydroxy-propoxy]-9,12-diazatricyclo[13.3.1.12,6]icosa-1(18),2(20),3,5,15(19),16-hexaene-8-carboxamide] |  | 
13 |  | Cc1nc(-c2ccc(CC(C)(C)C)cc2)ncc1C(=O)N[C@@H](CCN)C(=O)N(C)[C@@H]1C(=O)N[C@@H](C)C(=O)N[C@H](C(=O)NCC#N)Cc2ccc(OCCN)c(c2)-c2cc1ccc2OCCN (racemic) [Compound 226, rac-(8S,11S,14S)-3,18-bis(2-aminoethoxy)-N-(cyanomethyl)-11-methyl-14-[methyl-[rac-(2S)-4-amino-2-[[2-[4-(2,2-dimethylpropyl)phenyl]-4-methyl-pyrimidine-5-carbonyl]amino]butanoyl]amino]-10,13-dioxo-9,12-diazatricyclo[13.3.1.12,6]icosa-1(18),2(20),3,5,15(19),16-hexaene-8-carboxamide] | 0.099 µM | 
